biological target: human DPP1 enzyme (Homo sapiens (Human), UniProt P53634); experiment: Human DPP1 enzyme IC50 assay; type: biochemical; conditions: recombinant human DPP1, H-Gly-Arg-AMC substrate 400 μM
Description: Test articles were applied to activated human DPP1 enzyme in Assay Buffer (25 mM MES pH 6.0, 50 mM NaCl, 5 mM DTT) in a total reaction volume of 125 μL. 25 μL of compound in Assay Buffer plus 5% DMSO was first added to 50 μL of activated human DPP1 enzyme at a concentration of 1 ng/μL and allowed to pre-incubate for 10 minutes at 37° C. after which 50 μL of 1000 μM H-Gly-Arg-AMC substrate (Bachem; St. Torrance, CA) was added, giving final substrate concentration of 400 μM and a final DMSO concentration of 1%. Substrate cleavage was measured for 90 minutes at 37° C., with fluorescence at Excitation/Emission 350/450 nm measured every 5 minutes. DPP1 concentration was interpolated based on its activity relative to a standard curve of activated human recombinant DPP1 enzyme. IC50 values for each compound were calculated via the XLFit (IDBS Version 5.3.1.3) Add-On to Microsoft Excel using the four parameter fit equation y={A+[(B-A)]/[1+((C/x)^D)]}, which appears as equation number 205 (4 Parameter Logistic Model or Sigmoidal Dose-Response Model) in XLFit. Default constraints were used for each Parameter.

human DPP1 enzyme, sequence (P53634 25-134): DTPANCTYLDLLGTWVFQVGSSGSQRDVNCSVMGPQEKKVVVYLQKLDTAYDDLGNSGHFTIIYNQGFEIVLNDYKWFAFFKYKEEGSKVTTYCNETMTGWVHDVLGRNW
human DPP1 enzyme, sequence (P53634 231-394): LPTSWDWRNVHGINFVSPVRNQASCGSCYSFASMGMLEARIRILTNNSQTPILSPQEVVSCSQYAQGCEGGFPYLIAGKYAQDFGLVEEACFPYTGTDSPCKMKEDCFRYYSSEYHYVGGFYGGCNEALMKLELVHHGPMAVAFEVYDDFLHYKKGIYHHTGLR
human DPP1 enzyme, sequence (P53634 395-463): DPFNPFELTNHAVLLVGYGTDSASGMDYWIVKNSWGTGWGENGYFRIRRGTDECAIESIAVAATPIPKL

Compound | IC50
Cc1cn2cc(-c3ccc(C[C@@H](C#N)NC(=O)[C@](C)(N)C4CCC4)c(F)c3)cc2c(C)n1 [Compound 272A, (R)-2-amino-N—((S)-1-cyano-2-(4-(1,3-dimethylpyrrolo[1,2-a]pyrazin-7-yl)-2-fluorophenyl)ethyl)-2-cyclobutylpropanamide] | ≥ 15 nM
C[C@H](N)[C@H](O)C(=O)N[C@H](C#N)Cc1ccc(-c2ccc3oc(=O)n(C)c3c2)cc1 [Compound 102C] | ≥ 15 nM
CN1CCN[C@@H](CC(=O)N[C@H](C#N)Cc2ccc(-c3ccc4oc(=O)n(C)c4c3)cc2)C1 [Compound 253, N-[(1S)-1-cyano-2-[4-(3-methyl-2-oxo-1,3-benzoxazol-5-yl)phenyl]ethyl]-2-(4-methylpiperazin-2-yl)acetamide] | ≥ 15 nM
Cn1c(=O)oc2ccc(-c3ccc(C[C@@H](C#N)NC(=O)C[C@@H](N)c4ccccc4O)cc3)cc21 [Compound 227B, (3R)-3-amino-N-[(1S)-1-cyano-2-[4-(3-methyl-2-oxo-1,3-benzoxazol-5-yl)phenyl]ethyl]-3-(2-hydroxyphenyl)propanamide] | ≥ 15 nM
CN(C)C[C@@H](O)CC(=O)N[C@H](C#N)Cc1ccc(-c2ccc3oc(=O)n(C)c3c2)cc1 [Compound 113, (3S)—N-[(1S)-1-cyano-2-[4-(3-methyl-2-oxo-1,3-benzoxazol-5-yl)phenyl]ethyl]-4-(dimethylamino)-3-hydroxybutanamide] | ≥ 15 nM
CCN1C(=O)Cc2ccc(-c3ccc(C[C@@H](C#N)NC(=O)[C@](C)(N)C4CCCC4)cc3)cc21 [Compound 259B, (2R)-2-amino-N-[(1S)-1-cyano-2-[4-(1-ethyl-2-oxo-3H-indol-6-yl)phenyl]ethyl]-2-cyclopentylpropanamide] | ≥ 15 nM
C[C@@H](O)[C@@](C)(N)C(=O)N[C@H](C#N)Cc1ccc(-c2ccc3oc(=O)n(C)c3c2)cc1 [Compound 171C, (2R,3R)-2-amino-N-[(1S)-1-cyano-2-[4-(3-methyl-2-oxo-1,3-benzoxazol-5-yl)phenyl]ethyl]-3-hydroxy-2-methylbutanamide] | ≥ 15 nM
Cn1c(=O)oc2ccc(-c3ccc(C[C@@H](C#N)NC(=O)C[C@@H](N)Cc4cccc(O)c4)cc3)cc21 [Compound 225, (3S)-3-amino-N-[(1S)-1-cyano-2-[4-(3-methyl-2-oxo-1,3-benzoxazol-5-yl)phenyl]ethyl]-4-(3-hydroxyphenyl)butanamide] | ≥ 15 nM
Cn1c(=O)oc2ccc(-c3ccc(C[C@@H](C#N)NC(=O)CC(N)c4cocn4)cc3)cc21 (stereo partly drawn) [Compound 229, 3-amino-N-[(1S)-1-cyano-2-[4-(3-methyl-2-oxo-1,3-benzoxazol-5-yl)phenyl]ethyl]-3-(1,3-oxazol-4-yl)propanamide] | ≥ 15 nM
CO[C@H](CN(C)C)C(=O)N[C@H](C#N)Cc1ccc(-c2ccc3oc(=O)n(C)c3c2)cc1 [Compound 112, (2R)—N-[(1S)-1-cyano-2-[4-(3-methyl-2-oxo-1,3-benzoxazol-5-yl)phenyl]ethyl]-3-(dimethylamino)-2-methoxypropanamide] | ≥ 15 nM
CN(C)C[C@H](O)C(=O)N[C@@H](C#N)Cc1cc2c(cc1F)-c1ccc(C#N)cc1CO2 [Compound 277B, (2S)—N-[(1R)-1-cyano-2-{8-cyano-2-fluoro-6H-benzo[c]chromen-3-yl}ethyl]-3-(dimethylamino)-2-hydroxypropanamide] | ≥ 15 nM
Cn1c(=O)oc2ccc(-c3ccc(C[C@@H](C#N)NC(=O)C(C)(N)c4cccnc4)cc3)cc21 (stereo partly drawn) [Compound 216, 2-amino-N-[(1S)-1-cyano-2-[4-(3-methyl-2-oxo-1,3-benzoxazol-5-yl)phenyl]ethyl]-2-(pyridin-3-yl)propanamide] | ≥ 15 nM
CCN(CC)C[C@H](O)C(=O)N[C@H](C#N)Cc1ccc(-c2ccc3oc(=O)n(C)c3c2)cc1 [Compound 115, (2S)—N-[(1S)-1-cyano-2-[4-(3-methyl-2-oxo-1,3-benzoxazol-5-yl)phenyl]ethyl]-3-(diethylamino)-2-hydroxypropanamide] | ≥ 15 nM
Cn1c(=O)oc2ccc(-c3ccc(C[C@@H](C#N)NC(=O)CC(N)c4ccccc4)cc3)cc21 (stereo partly drawn) [Compound 189, 3-amino-N-[(1S)-1-cyano-2-[4-(3-methyl-2-oxo-2,3-dihydro-1,3-benzoxazol-5-yl)phenyl]ethyl]-3-phenylpropanamide] | ≥ 15 nM
Cn1c(=O)oc2ccc(-c3ccc(C[C@@H](C#N)NC(=O)[C@@H](O)CN4CCOCC4)cc3)cc21 [Compound 121, (2S)—N-[(1S)-1-cyano-2-[4-(3-methyl-2-oxo-1,3-benzoxazol-5-yl)phenyl]ethyl]-2-hydroxy-3-(morpholin-4-yl)propanamide] | ≥ 15 nM
Cc1ccccc1C[C@@H](CN)C(=O)N[C@H](C#N)Cc1ccc(-c2ccc3oc(=O)n(C)c3c2)cc1 [Compound 194, (2S)-3-amino-N-[(1S)-1-cyano-2-[4-(3-methyl-2-oxo-1,3-benzoxazol-5-yl)phenyl]ethyl]-2-[(2-methylphenyl)methyl]propanamide] | ≥ 15 nM

Compound | IC50
Cc1ccccc1C[C@H](CN)C(=O)N[C@H](C#N)Cc1ccc(-c2ccc3oc(=O)n(C)c3c2)cc1 [Compound 193, (2R)-3-amino-N-[(1S)-1-cyano-2-[4-(3-methyl-2-oxo-1,3-benzoxazol-5-yl)phenyl]ethyl]-2-[(2-methylphenyl)methyl]propanamide] | ≥ 15 nM
Cn1c(=O)oc2ccc(-c3ccc(C[C@@H](C#N)NC(=O)C(C)(CN)Cc4ccccc4F)cc3)cc21 (stereo partly drawn) [Compound 196, 3-Amino-N-[(1S)-1-cyano-2-[4-(3-methyl-2-oxo-1,3-benzoxazol-5-yl)phenyl]ethyl]-2-[(2-fluorophenyl)methyl]-2-methylpropanamide] | ≥ 15 nM
CC(CO)CC(N)C(=O)N[C@H](C#N)Cc1ccc(-c2ccc3oc(=O)n(C)c3c2)cc1 (stereo partly drawn) [Compound 168, 2-amino-N-[(1S)-1-cyano-2-[4-(3-methyl-2-oxo-1,3-benzoxazol-5-yl)phenyl]ethyl]-5-hydroxy-4-methylpentanamide] | ≥ 15 nM
Cn1c(=O)oc2ccc(-c3ccc(C[C@@H](C#N)NC(=O)C(N)Cc4cncc(O)c4)cc3)cc21 (stereo partly drawn) [Compound 217, 2-amino-N-[(1S)-1-cyano-2-[4-(3-methyl-2-oxo-1,3-benzoxazol-5-yl)phenyl]ethyl]-3-(5-hydroxypyridin-3-yl)propanamide] | ≥ 15 nM
Cn1c(=O)oc2ccc(-c3ccc(C[C@@H](C#N)NC(=O)C[C@@H](N)C4CCCO4)cc3)cc21 (stereo partly drawn) [Compound 226, (3R)-3-amino-N—((S)-1-cyano-2-(4-(3-methyl-2-oxo-2,3-dihydrobenzo[d]oxazol-5-yl)phenyl)ethyl)-3-(tetrahydrofuran-2-yl)propanamide] | ≥ 15 nM
Cc1ccccc1[C@@H](N)CC(=O)N[C@H](C#N)Cc1ccc(-c2ccc3oc(=O)n(C)c3c2)cc1 [Compound 198, (3S)-3-amino-N-[(1S)-1-cyano-2-[4-(3-methyl-2-oxo-1,3-benzoxazol-5-yl)phenyl]ethyl]-3-(2-methylphenyl)propanamide] | ≥ 15 nM
CN(C)C[C@@H](O)C(=O)N[C@H](C#N)Cc1ccc(-c2ccc3oc(=O)n(C)c3c2)cc1 [Compound 104, (2R)—N-[(1S)-1-cyano-2-[4-(3-methyl-2-oxo-1,3-benzoxazol-5-yl)phenyl]ethyl]-3-(dimethylamino)-2-hydroxypropanamide] | ≥ 15 nM
Cn1c(=O)oc2ccc(-c3ccc(C[C@@H](C#N)NC(=O)C(C)(N)c4ccc(O)cc4)cc3)cc21 (stereo partly drawn) [Compound 200, 2-amino-N-[(1S)-1-cyano-2-[4-(3-methyl-2-oxo-1,3-benzoxazol-5-yl)phenyl]ethyl]-2-(4-hydroxyphenyl)propanamide] | ≥ 15 nM
CCN(C)C[C@H](OC)C(=O)N[C@H](C#N)Cc1ccc(-c2ccc3oc(=O)n(C)c3c2)cc1 [Compound 130, (2S)—N-[(1S)-1-cyano-2-[4-(3-methyl-2-oxo-1,3-benzoxazol-5-yl)phenyl]ethyl]-3-[ethyl(methyl)amino]-2-methoxypropanamide] | ≥ 15 nM
Cn1c(=O)oc2ccc(-c3ccc(C[C@@H](C#N)NC(=O)[C@@H](O)CN4CCCC4)cc3)cc21 [Compound 120, (2S)—N-[(1S)-1-cyano-2-[4-(3-methyl-2-oxo-1,3-benzoxazol-5-yl)phenyl]ethyl]-2-hydroxy-3-(pyrrolidin-1-yl)propanamide] | ≥ 15 nM
C[C@@H](N)[C@H](O)C(=O)N[C@H](C#N)Cc1ccc(-c2ccc3oc(=O)n(C)c3c2)cc1 [Compound 102A] | ≥ 15 nM
Cc1ccccc1CC(CN)C(=O)N[C@H](C#N)Cc1ccc(-c2ccc3oc(=O)n(C)c3c2)cc1 (stereo partly shown) [Compound 192] | ≥ 15 nM
CN(C)C[C@H](O)CC(=O)N[C@H](C#N)Cc1ccc(-c2ccc3oc(=O)n(C)c3c2)cc1 [Compound 118, (3R)—N-[(1S)-1-cyano-2-[4-(3-methyl-2-oxo-1,3-benzoxazol-5-yl)phenyl]ethyl]-4-(dimethylamino)-3-hydroxybutanamide] | ≥ 15 nM
CCN(CC)C[C@@H](O)C(=O)N[C@H](C#N)Cc1ccc(-c2ccc3oc(=O)n(C)c3c2)cc1 [Compound 116, (2R)—N-[(1S)-1-cyano-2-[4-(3-methyl-2-oxo-1,3-benzoxazol-5-yl)phenyl]ethyl]-3-(diethylamino)-2-hydroxypropanamide] | ≥ 15 nM
Cn1c(=O)oc2ccc(-c3ccc(C[C@@H](C#N)NC(=O)C[C@H](N)c4ccccc4O)cc3)cc21 [Compound 227A, (3S)-3-amino-N-[(1S)-1-cyano-2-[4-(3-methyl-2-oxo-1,3-benzoxazol-5-yl)phenyl]ethyl]-3-(2-hydroxyphenyl)propenamide] | ≥ 15 nM
